The structures appear in SMILES notation. Like-named read-outs stand apart in the source and are kept apart here.

In data set [1] the test system is Human ovarian cancer cell line SKOV3. Put plainly: Phototoxicity in SKOV3 cells (660 nm laser or LED, AlamarBlue viability). The class given is cell-based. The note with it: Homo sapiens, SK-OV-3, light or radiation study, SKOV3, 24 h uptake, viability 24 h later. From the text:
All data are shown as mean±SD (where appropriate).
Media was then replaced with fresh media containing AlamarBlue, and % viable cells remaining assessed as above. […] All measurements were made in quadruplicate.
A general note: The colour change of resazurin is a common sign of viable cells or microbes.

The test system is the same in data set [2]. Particulars: 24 h.
Description: Serial dilutions were prepared in cell culture media (Dulbecco's Modified Eagle Medium/Nutrient Mixture F-12 (DMEM/F-12)) supplemented with 10% v/v Fetal Bovine Serum, 100 U/mL penicillin, 100 μg/mL streptomycin and the same excipient solution at a constant 1:55 dilution.
Human ovarian cancer cell line SKOV3 (ATCC #HTB-77) was maintained in Dulbecco's Modified Eagle Medium/Nutrient Mixture F-12 (DMEM/F-12), supplemented with 10% v/v Fetal Bovine Serum, 100 U/mL penicillin and 100 μg/mL streptomycin. Monolayer cultures were grown in a humidified incubator at 37° C. with 5% CO2. Once cells had reached ˜80% confluence, spent media was replaced with media containing photosensitizer at the required concentration and cells were incubated for the desired period of time to allow photosensitizer uptake.
Spectral absorbance and viability measurements were normalized in the range 0-100%, with a minimum of 0 and a maximum value determined from the dataset. Dose response was determined using a sigmoidal four-point non-linear regression with variable slope, and IC10 or IC90 calculated for each compound. All data are shown as mean±SD (where appropriate).
On reaching ˜60% confluence, media was aspirated and replaced with fresh media containing the relevant phyllochlorin analogue from 0-100 μM in DMSO.
Untreated cells were used as a control. […] All measurements were made in quadruplicate.
The phototoxicity and inherent cytotoxicity (i.e. “dark toxicity”) of phyllochlorin analogues were assessed as previously using SKOV3 ovarian cancer cells. For comparative purposes, phyllochlorin analogues were compared against chlorin e4 disodium and Talaporfin sodium, a clinically approved photosensitizer used in the photodynamic treatment of lung cancers.
The mark [3] stands for this setting: 660 nm laser 50 mW/cm^2 for 5 mins (15 J/cm^2), read-out: Phototoxicity μM (IC90).
[4] abbreviates: 660 nm LED panel 50 mW/cm^2 for 5 mins (15 J/cm^2), read-out: Phototoxicity μM (IC90), measured by LED.

One may read the IC90 as the concentration at which the effect reaches the 90% level. With `CCC1=C(C)c2cc3[nH]c(cc4nc(c(C)c5cc(C)c(cc1n2)[nH]5)[C@@H](CCC(=O)N(C)CCCS[C@@H]1O[C@H](CO)[C@@H](O)[C@H](O)[C@H]1O)[C@@H]4C)c(C)c3C(C)O` (stereo partly drawn) [Compound 26, 13-hydroxyethylphyllochlorin-β-D-1-thioglucose-N-methylpropylamide], in data set [1] (setting [3]), the concentration for an effect of 90% (IC90) came to 0.248 µM. In addition, the “Dark toxicity μM (IC10)” value in data set [2] was found to be 21.550 µM.
In the same order, the values of `CCC1=C(C)c2cc3[nH]c(cc4nc(c(C)c5cc(C)c(cc1n2)[nH]5)[C@@H](CCC(=O)N(CCOCCOCCOC)CCOCCOCCOC)[C@@H]4C)c(C)c3CO[C@@H]1O[C@H](CO)[C@@H](O)[C@H](O)[C@H]1O` [Compound 14, phyllochlorin 13-hydroxymethyl-β-D-glucoside ether-N,N-bis-PEG3OMe propylamide] are 0.186 µM and 0.626 µM.
Take `CCC1=C(C)c2cc3[nH]c(cc4nc(c(C)c5cc(C)c(cc1n2)[nH]5)[C@@H](CCC(=O)OC)[C@@H]4C)c(C)c3CO[C@@H]1O[C@H](CO)[C@@H](O)[C@H](O)[C@H]1O` [Compound 4, phyllochlorin 13-hydroxymethyl-β-D-glucoside ether methyl ester]: the IC90 in data set [1] (setting [3]) came to 0.099 µM. For the same molecule, in data set [2], the “Dark toxicity μM (IC10)” value is 0.775 µM.
In the same order, the values of `CCC1=C(C)c2cc3[nH]c(cc4nc(c(C)c5cc(C)c(cc1n2)[nH]5)[C@@H](CCC(=O)OC)[C@@H]4C)c(C)c3C=O` [Compound 30, phyllochlorin 13-formyl methyl ester] are 2.27 µM and 45.760 µM.
On the same counts, the results for `CCC1=C(C)c2cc3[nH]c(cc4nc(c(C)c5cc(C)c(cc1n2)[nH]5)[C@@H](CCC(=O)OC)[C@@H]4C)c(C)c3C(C)OCCC[n+]1ccc(C)cc1` (stereo partly drawn) [Compound 28] are 0.003 µM and 4.877 µM.
On the same counts, the results for `CCC1=C(C)c2cc3[nH]c(cc4nc(c(C)c5cc(C)c(cc1n2)[nH]5)[C@@H](CCC(=O)N(C)CCCOCCC[P+](c1ccccc1)(c1ccccc1)c1ccccc1)[C@@H]4C)c(C)c3CO` [Compound 18] are 0.007 µM and 4.393 µM.
Take `CCC1=C(C)c2cc3[nH]c(cc4nc(c(C)c5cc(C)c(cc1n2)[nH]5)[C@@H](CCC(=O)N(C)CCCOCCC[P+](c1ccccc1)(c1ccccc1)c1ccccc1)[C@@H]4C)c(C)c3CO[C@@H]1O[C@H](CO)[C@@H](O)[C@H](O)[C@H]1O` [Compound 19]: the 90% effect concentration (IC90) in data set [1] (setting [3]) amounted to 0.018 µM. Further, the “Dark toxicity μM (IC10)” value in data set [2] was found to be 0.090 µM.
`CCC1=C(C)c2cc3[nH]c(cc4nc(c(C)c5cc(C)c(cc1n2)[nH]5)[C@@H](CCC(=O)NCCOCCO[C@@H]1O[C@H](CO)[C@@H](O)[C@H](O)[C@H]1O)[C@@H]4C)c(C)c3CO[C@@H]1O[C@H](CO)[C@@H](O)[C@H](O)[C@H]1O` [Compound 16, phyllochlorin 13-hydroxymethyl-β-D-glucoside ether-β-D-1-glucose-2-ethoxy-N-ethanamine]: in data set [1] (setting [3]), the IC90 turned out to be 1.82 µM. Besides, the “Dark toxicity μM (IC10)” value in data set [2] is 5.929 µM.
Regarding `CCC1=C(C)c2cc3[nH]c(cc4nc(c(C)c5cc(C)c(cc1n2)[nH]5)[C@@H](CCC(=O)OC)[C@@H]4C)c(C)c3COC(=O)NCCCCCC[P+](c1ccccc1)(c1ccccc1)c1ccccc1` [Compound 39, phyllochlorin methyl ester 13-(6-(triphenylphosphonium bromide)hexyl)carbamate], in data set [1] (setting [4]), the IC90 was 0.0018 µM. Further, the “Dark toxicity μM (IC10)” value in data set [2] is 6.403 µM.
Regarding `CCC1=C(C)c2cc3[nH]c(cc4nc(c(C)c5cc(C)c(cc1n2)[nH]5)[C@@H](CCC(=O)O)[C@@H]4C)c(C)c3C(C)O` (stereo partly drawn) [Compound 27, phyllochlorin 13-(ethyl-1-alcohol)], the concentration for an effect of 90% (IC90) in data set [1] (setting [3]) is 0.397 µM. Besides, the “Dark toxicity μM (IC10)” value in data set [2] was found to be 10.520 µM.
On the same counts, the results for `CCC1=C(C)c2cc3[nH]c(cc4nc(c(C)c5cc(C)c(cc1n2)[nH]5)[C@@H](CCC(=O)OC)[C@@H]4C)c(C)c3CO` [Compound 3, phyllochlorin 13-hydroxymethyl methyl ester] are 0.308 µM and 45.720 µM.
In the same order, the values of `CCC1=C(C)c2cc3[nH]c(cc4nc(c(C)c5cc(C)c(cc1n2)[nH]5)[C@@H](CCC(=O)N(C)CCCO[C@@H]1O[C@H](CO)[C@@H](O)[C@H](O)[C@H]1O)[C@@H]4C)c(C)c3CO[C@@H]1O[C@H](CO)[C@@H](O)[C@H](O)[C@H]1O` [Compound 12, phyllochlorin 13-hydroxymethyl-β-D-glucoside ether-β-D-glucosyl-N-methylpropylamide] are 0.353 µM and 2.466 µM.
On the same counts, the results for `CCC1=C(C)c2cc3[nH]c(cc4nc(c(C)c5cc(C)c(cc1n2)[nH]5)[C@@H](CCC(=O)N(C)CCCO)[C@@H]4C)c(C)c3C(C)OCCCS[C@@H]1O[C@H](CO)[C@@H](O)[C@H](O)[C@H]1O` (stereo partly drawn) [Compound 2, phyllochlorin N-3-hydroxypropyl-N-methyl propylamide propyloxythio-D-glucose] are 0.03 µM and 7.640 µM.
For the molecule `CCC1=C(C)c2cc3[nH]c(cc4nc(c(C)c5cc(C)c(cc1n2)[nH]5)[C@@H](CCCO)[C@@H]4C)c(C)c3CO` [Compound 32, phyllochlorin 13-hydroxymethyl-3-hydroxypropyl], in data set [1] (setting [3]), the IC90 amounted to 0.0724 µM. In addition, the “Dark toxicity μM (IC10)” value in data set [2] is 30.850 µM.
In the same order, the values of `CCC1=C(C)c2cc3[nH]c(cc4nc(c(C)c5cc(C)c(cc1n2)[nH]5)[C@@H](CCC(=O)N(CCOCCOCCOC)CCOCCOCCOC)[C@@H]4C)c(C)c3CO` [Compound 13, phyllochlorin 13-hydroxymethyl-N,N-bis-PEG3OMe propylamide] are 0.421 µM and 60.750 µM.
In the same order, the values of `CCC1=C(C)c2cc3[nH]c(cc4nc(c(C)c5cc(C)c(cc1n2)[nH]5)[C@@H](CCC(=O)N(C)CCCO)[C@@H]4C)c(C)c3CO[C@@H]1O[C@H](CO)[C@@H](O)[C@H](O)[C@H]1O` [Compound 6, phyllochlorin N-3-hydroxypropyl-N-methyl-propylamide 13-hydroxymethyl-β-D-glucoside ether] are 0.084 µM and 0.528 µM.
As for `CCC1=C(C)c2cc3[nH]c(cc4nc(c(C)c5cc(C)c(cc1n2)[nH]5)[C@@H](CCC(=O)N(C)CCOCCOCCOC)[C@@H]4C)c(C)c3CO` [Compound 42, phyllochlorin 13-hydroxymethyl N-methyl-N-3,6,9-trioxadecyl propylamide], in data set [1] (setting [4]), the 90% effect concentration (IC90) is 0.245 µM. The “Dark toxicity μM (IC10)” value in data set [2] worked out at 4.252 µM.
In the case of `CCC1=C(C)c2cc3[nH]c(cc4nc(c(C)c5cc(C)c(cc1n2)[nH]5)[C@@H](CCC(=O)N(C)CCOCCOCCOC)[C@@H]4C)c(C)c3COC(=O)NCCCCCC[P+](c1ccccc1)(c1ccccc1)c1ccccc1` [Compound 43, phyllochlorin 13-(6-(triphenylphosphonium bromide)hexyl)carbamate N-methyl-N-3,6,9-trioxadecyl propylamide], the concentration for an effect of 90% (IC90) in data set [1] (setting [4]) amounted to 0.0042 µM. Besides, in data set [2], the “Dark toxicity μM (IC10)” value was 0.5889 µM.
`CCC1=C(C)c2cc3[nH]c(cc4nc(c(C)c5cc(C)c(cc1n2)[nH]5)[C@@H](CCC(=O)N(C)C[C@H](O)[C@@H](O)[C@H](O)[C@H](O)CO)[C@@H]4C)c(C)c3CO[C@@H]1O[C@H](CO)[C@@H](O)[C@H](O)[C@H]1O` [Compound 10, phyllochlorin N-meglumine-propylamide-13-hydroxymethyl-β-D-glucoside ether]: the 90% effect concentration (IC90) in data set [1] (setting [3]) was found to be 1.5 µM. Further, the “Dark toxicity μM (IC10)” value in data set [2] was 4.732 µM.
Turning to `CCC1=C(C)c2cc3[nH]c(cc4nc(c(C)c5cc(C)c(cc1n2)[nH]5)[C@@H](CCC(=O)N(C)CCOCCOCCOCCOCCOCCOC)[C@@H]4C)c(C)c3CO[C@@H]1O[C@H](CO)[C@@H](O)[C@H](O)[C@H]1O` [Compound 25, phyllochlorin 13-hydroxymethyl-β-D-glucoside ether-β-D-glucosel-N-methyl-N-3,6,9,12,15,18-hexaoxanonadecyl propylamide], the concentration for an effect of 90% (IC90) in data set [1] (setting [3]) is 0.146 µM. Also, the “Dark toxicity μM (IC10)” value in data set [2] was determined as 0.279 µM.
`CCC1=C(C)c2cc3[nH]c(cc4nc(c(C)c5cc(C)c(cc1n2)[nH]5)[C@@H](CCC(=O)OC)[C@@H]4C)c(C)c3CO[C@@H]1O[C@H](CO)[C@@H](O[C@H]2O[C@H](CO)[C@@H](O)[C@H](O)[C@H]2O)[C@H](O)[C@H]1O` [Compound 8, phyllochlorin 13-hydroxymethyl-β-D-maltose ether methyl ester]: the 90% effect concentration (IC90) in data set [1] (setting [3]) is 0.665 µM. The “Dark toxicity μM (IC10)” value in data set [2] came out at 7.442 µM.
For the molecule `CCC1=C(C)c2cc3[nH]c(cc4nc(c(C)c5cc(C)c(cc1n2)[nH]5)[C@@H](CCC(=O)OC)[C@@H]4C)c(C)c3C(C)OCCC[n+]1ccccc1` (stereo partly drawn) [Compound 20, phyllochlorin methyl ester 3-pyridinium bromide propyl ether], in data set [1] (setting [3]), the IC90 was determined as 0.003 µM. In addition, in data set [2], the “Dark toxicity μM (IC10)” value is 1.998 µM.
On the same counts, the results for `CCC1=C(C)c2cc3[nH]c(cc4nc(c(C)c5cc(C)c(cc1n2)[nH]5)[C@@H](CCC(=O)OC)[C@@H]4C)c(C)c3C(C)OCCOCC[n+]1ccccc1` (stereo partly drawn) [Compound 22, phyllochlorin methyl ester 2-(2-pyridiniumethoxy)ethyl ether chloride] are 0.004 µM and 2.228 µM.
On the same counts, the results for `CCC1=C(C)c2cc3[nH]c(cc4nc(c(C)c5cc(C)c(cc1n2)[nH]5)[C@@H](CCCO[C@@H]1O[C@H](CO)[C@@H](O)[C@H](O)[C@H]1O)[C@@H]4C)c(C)c3CO[C@@H]1O[C@H](CO)[C@@H](O)[C@H](O)[C@H]1O` [Compound 33, phyllochlorin 13-hydroxymethyl-3-hydroxypropyl-bis-β-D-glucoside ether] are 0.765 µM and 14.080 µM.

The values above are taken from patent publication US20250177533A1, “PHOTODYNAMIC THERAPY AND DIAGNOSIS” (RMW CHO Group Limited, priority 2021, published 2025).
